Tests used:
Format in all cases: functional
[1] = Antioxidant activity assessed as inhibition non-enzymatic reactants generated superoxide anion at 20 ug/ml by spectrophotometry
[2] = Antioxidant activity assessed as inhibition non-enzymatic reactants generated hydroxyl radical production at 100 ug/ml by spectrophotometry
[3] = Antioxidant activity assessed as inhibition non-enzymatic reactants generated superoxide anion at 200 ug/ml by spectrophotometry
[4] = system: Rattus norvegicus; assay: Antidyslipidemic activity against triton-induced hyperlipidemia in Charles Foster rat assessed as reduction in phospholipid level at 100 mg/kg, po after 18 hrs by spectrophotometry relative to control; set-up: scale not given: the % may be the effect or the level left
[5] = system: Rattus norvegicus; assay: Antidyslipidemic activity against triton-induced hyperlipidemia in Charles Foster rat assessed as reduction in total cholesterol level at 100 mg/kg, po after 18 hrs by spectrophotometry relative to control; set-up: scale not given: the % may be the effect or the level left
[6] = Antioxidant activity assessed as inhibition lipid peroxidation at 200 ug/ml by spectrophotometry
[7] = system: Rattus norvegicus; assay: Antidyslipidemic activity against triton-induced hyperlipidemia in Charles Foster rat assessed as reduction in triglyceride level at 100 mg/kg, po after 18 hrs by spectrophotometry relative to control; set-up: scale not given: the % may be the effect or the level left
[8] = Antioxidant activity assessed as inhibition non-enzymatic reactants generated hydroxyl radical production at 200 ug/ml by spectrophotometry

With Oc1ncnc2[nH]ncc12 as the molecule, how does the inhibition [1] read?
The inhibition was 80%.

Which inhibition [2] does the source give for Cc1c(C)c2c(c(C)c1O)CC[C@@](C)(CCC[C@H](C)CCC[C@H](C)CCCC(C)C)O2 here?
Its inhibition is 47%.

Which inhibition [3] does the source give for Cc1cc(C=O)c(O)c2ccccc12 here?
Its inhibition is 27%.

And the Activity [4]?
Its Activity is 25%.

And the Activity [5]?
The Activity was 24%.

What about the inhibition [6] of the same molecule?
The inhibition was 41%.

What about the Activity [7] of the same molecule?
Its Activity is 23%.

What about the inhibition [8] of the same molecule?
The inhibition was 41%.

Which inhibition [3] does the source give for Cc1cc2cc(Cl)c(=O)oc2c2ccccc12 here?
Its inhibition is 32%.

What about the Activity [4] of the same molecule?
Its Activity is 26%.

What about the Activity [5] of the same molecule?
Its Activity is 27%.

And the inhibition [6]?
The inhibition was 38%.

And the Activity [7]?
Its Activity is 26%.

What about the inhibition [8] of the same molecule?
Its inhibition is 49%.

With OC[C@@H](O)[C@@H](O)[C@H](O)[C@H](O)CO as the molecule, how does the inhibition [2] read?
The inhibition was 52%.

Which Activity [4] does the source give for Cc1ccc(C)c(OCCCC(C)(C)C(=O)O)c1 [GEMFIBROZIL] here?
The Activity was 38%.

What about the Activity [5] of the same molecule?
The Activity was 34%.

What about the Activity [7] of the same molecule?
Its Activity is 35%.

Source: ChEMBL document CHEMBL1177776, “Novel coumarin derivatives as potential antidyslipidemic agents” (2010)
